Patent US9856511B2, “Protease deubiquitinating inhibitor screening” (priority 2011, dated 2018)

Key:
[1] = test system: HCT116 cells; type: cell-based; conditions: human
Text: These findings indicate that high molecular weight ubiquitin substrate complexes accumulating as a result of DUB inhibition can generate strong cytotoxicity that is insensitive to Bcl-2 over-expression. [table]

[2] = test system: isogenic clones of HCT116 colon cancer cells; assay: Apoptosis in isogenic HCT116 clones, caspase cleaved cytokeratin-18 ELISA; type: cell-based
Experimental: The increase in sub G1 DNA content is associated with (i) activation of the apoptosis mediator caspase-3 and (ii) with cleavage of the caspase substrates poly-ADP ribose polymerase (PARP) and cytokeratin-18. […] Apoptosis induction by bortezomib is dependent on p53 and inhibited by overexpression of the Bcl-2 protein (16,17).
For determination of apoptosis parental HCT-116 p53+/+ cells were treated with the increasing doses of bortezomib or b-AP15 for 24 h. […] HCT-116 cells were seeded in 96-well microtiter plates at 10,000 cells per well and incubated overnight. Cells were treated with indicated drug for 24 h. At the end of the incubation period, NP40 was added to the tissue culture medium to 0.1% and 25 μl of the content of each well was assayed using the M30-Apoptosense® ELISA as previously described (43). Cell viability was determined by measuring acid phosphatase activity or using the FMCA method (44). For the acid phosphatase activity cells were seeded at 5000 cells per well in 96-well culture plates and incubated for 12 h at 37° C. Compounds were added to the cells in growth media and incubated for 72 h at 37° C. Cells were washed with 200 μl warm PBS. […] Absorbance was measured at 405 nm.
b-AP15 inhibits degradation of ubiquitin-tagged YFP in a proteasome reporter cell line (FIG. 1a). Levels of ^UbG76V-YFP accumulation were determined by flow cytometry and immunoblotting; immunoblot of ubiquitin conjugation in HCT-116 cells treated with b-AP15 (1 μM) or bortezomib (100 nM) (FIG. 1b). […] Immunoblot of ODC-1 levels in HCT-116 cells following treatment with bortezomib ([…] or b-Ap15 (1 μM) (FIG. 1d); values represent quantified optical density units of ODC-1 normalized to β-actin. Cell cycle profiles of b-AP15 treated HCT-116 cells (FIG. 1e); cells were analyzed by propidium iodide staining and flow cytometry. Levels of caspase activity in isogenic HCT-116 cells as determined by ELISA for caspase cleaved cytokeratin-18 (CK18-Asp398) following treatment with bortezomib (100 nM) or b-AP15 (1 μM) (**′P=0.01, ***′P=0.001) (FIG. 1f). […]

CC(C)C[C@H](NC(=O)[C@H](Cc1ccccc1)NC(=O)c1cnccn1)B(O)O [bortezomib]
Fold induction DNAJB1 (Hsp40B1) mRNA [1]: 5 fold | Fold induction HSPA1B mRNA [1]: 12 fold | Fold induction HSPA6 (Hsp70B′) mRNA [1]: 60 fold | apoptosis: effect of genetic disruption of BAX or PUMA [2]: bortezomib-induced apoptosis is inhibited
